Holding throughout (format): functional, cell-based
One assay deals with L1210. Put plainly: Cytotoxicity against mouse L1210 cells assessed as reduction in cell viability by MTT assay. For orientation: Tetrazolium assays rely on reduction of a dye to a coloured formazan, in cell work by metabolically active cells.
The subject of a further assay is SMMC-7721. Description: Cytotoxicity against human SMMC7721 cells assessed as reduction in cell viability by MTT assay.
A further assay concerns HL-60. Put plainly: Cytotoxicity against human HL60 cells assessed as reduction in cell viability by MTT assay.
The test system of the next assay is Hep 3B2. Description: Cytotoxicity against human Hep3B cells assessed as reduction in cell viability by MTT assay.
Another assay concerns CAPAN-1. Description: Cytotoxicity against human Capan1 cells assessed as reduction in cell viability by MTT assay.

With `CC1COc2c(N3CCN(C)CC3)c(F)cc3c(=O)c(-c4nnc(SCc5nnc(-c6ccc(Cl)cc6)o5)o4)cn1c23` (configuration not stated), the IC50 in the assay on L1210, in the assay on SMMC-7721 and in the assay with HL-60 was 5.7 to 24.7 µM each time.
`CCn1cc(-c2nc3scc(-c4ccc(O)cc4)n3n2)c(=O)c2cc(F)c(N3CCN(C)CC3)cc21`: the 50% inhibitory concentration (IC50) with L1210, in the assay with Hep 3B2, in the assay on SMMC-7721, in the assay with HL-60 and with CAPAN-1 was 3.6 to 56.8 µM each time.
Turning to `CCn1cc(-c2nc3scc(-c4ccc(OC)c(O)c4)n3n2)c(=O)c2cc(F)c(N3CCN(C)CC3)cc21`, the 50% inhibitory concentration (IC50) in the assay on L1210, in the assay with Hep 3B2, with SMMC-7721, with HL-60 and in the assay with CAPAN-1 was 3.6 to 56.8 µM each time.
Turning to `CN1CCN(c2cc3c(cc2F)c(=O)c(-c2nnc(SCc4nnc(-c5ccc(Cl)cc5)o4)o2)cn3C2CC2)CC1`, the half-inhibitory concentration (IC50) in the assay on L1210, in the assay on SMMC-7721 and in the assay with HL-60 was 2.4 to 32.4 µM each time.
Regarding `CN1CCN(c2cc3c(cc2F)c(=O)c(-c2nnc(SCc4nnc(-c5ccc([N+](=O)[O-])cc5)o4)o2)cn3C2CC2)CC1`, the IC50 with L1210, with SMMC-7721 and with HL-60 was 2.4 to 32.4 µM in each case.
As for `COc1ccc(-c2nnc(CSc3nnc(-c4cn5c6c(c(N7CCN(C)CC7)c(F)cc6c4=O)OCC5C)o3)o2)cc1` (configuration not stated), the IC50 in the assay on L1210, with SMMC-7721 and with HL-60 was 5.7 to 24.7 µM each time.
On to `CC1COc2c(N3CCN(C)CC3)c(F)cc3c(=O)c(-c4nnc(SCc5nnc(-c6ccccc6)o5)o4)cn1c23` (configuration not stated), for which the IC50 in the assay with L1210, with SMMC-7721 and in the assay on HL-60 was 5.7 to 24.7 µM throughout.
As to `CCn1cc(-c2nc3scc(-c4ccccc4O)n3n2)c(=O)c2cc(F)c(N3CCN(C)CC3)cc21`, the IC50 in the assay on L1210, in the assay on Hep 3B2, with SMMC-7721, in the assay on HL-60 and with CAPAN-1 was 3.6 to 56.8 µM each time.
Regarding `CCn1cc(-c2nc3scc(-c4ccc(Cl)cc4)n3n2)c(=O)c2cc(F)c(N3CCN(C)CC3)cc21`, the IC50 in the assay with L1210, in the assay on Hep 3B2, in the assay with SMMC-7721, in the assay with HL-60 and in the assay on CAPAN-1 was 3.6 to 56.8 µM each time.
As for `CCn1cc(-c2nc3scc(-c4ccc(OC)cc4)n3n2)c(=O)c2cc(F)c(N3CCN(C)CC3)cc21`, the half-inhibitory concentration (IC50) with L1210, with Hep 3B2, in the assay on SMMC-7721, with HL-60 and in the assay on CAPAN-1 was 3.6 to 56.8 µM in each case.
Consider `CCn1cc(-c2nc3scc(-c4ccc([N+](=O)[O-])cc4)n3n2)c(=O)c2cc(F)c(N3CCN(C)CC3)cc21`, for which the IC50 in the assay on L1210, in the assay on Hep 3B2, in the assay on SMMC-7721, in the assay on HL-60 and in the assay on CAPAN-1 was 3.6 to 56.8 µM each time.
`CCn1cc(-c2nc3scc(-c4ccccc4)n3n2)c(=O)c2cc(F)c(N3CCN(C)CC3)cc21`: the IC50 with L1210, in the assay with Hep 3B2, in the assay with SMMC-7721, with HL-60 and in the assay on CAPAN-1 was 3.6 to 56.8 µM each time.
`COc1ccccc1-c1csc2nc(-c3cn4c5c(c(N6CCN(C)CC6)c(F)cc5c3=O)OCC4C)nn12` (configuration not stated): the half-maximal inhibitory concentration (IC50) in the assay with L1210, with Hep 3B2, in the assay with SMMC-7721, in the assay with HL-60 and in the assay on CAPAN-1 was 3.6 to 56.8 µM throughout.
For the compound `CC1COc2c(N3CCN(C)CC3)c(F)cc3c(=O)c(-c4nnc(SCc5nnc(-c6ccc([N+](=O)[O-])cc6)o5)o4)cn1c23` (configuration not stated), the IC50 in the assay with L1210, in the assay with SMMC-7721 and in the assay with HL-60 was 5.7 to 24.7 µM each time.
On to `CCn1cc(-c2nc3scc(-c4ccc5c(c4)OCO5)n3n2)c(=O)c2cc(F)c(N3CCN(C)CC3)cc21`, for which the IC50 with L1210, in the assay on Hep 3B2, in the assay on SMMC-7721, in the assay with HL-60 and with CAPAN-1 was 3.6 to 56.8 µM throughout.
`COc1cc(-c2nnc(CSc3nnc(-c4cn(C5CC5)c5cc(N6CCN(C)CC6)c(F)cc5c4=O)o3)o2)cc(OC)c1OC`: the half-inhibitory concentration (IC50) in the assay with L1210, in the assay with SMMC-7721 and in the assay with HL-60 was 2.4 to 32.4 µM each time.
Consider `CCn1cc(-c2nc3scc(-c4ccccc4OC)n3n2)c(=O)c2cc(F)c(N3CCN(C)CC3)cc21`, for which the IC50 in the assay with L1210, in the assay with Hep 3B2, with SMMC-7721, in the assay with HL-60 and in the assay on CAPAN-1 was 3.6 to 56.8 µM in each case.
As for `COc1cc(-c2nnc(CSc3nnc(-c4cn5c6c(c(N7CCN(C)CC7)c(F)cc6c4=O)OCC5C)o3)o2)cc(OC)c1OC` (configuration not stated), the IC50 in the assay on L1210, in the assay on SMMC-7721 and in the assay on HL-60 was 5.7 to 24.7 µM throughout.
Turning to `CN1CCN(c2cc3c(cc2F)c(=O)c(-c2nnc(SCc4nnc(-c5ccccc5)o4)o2)cn3C2CC2)CC1`, the IC50 with L1210, in the assay on SMMC-7721 and in the assay on HL-60 was 2.4 to 32.4 µM in each case.
With `CCn1cc(-c2nc3scc(-c4ccc(F)cc4)n3n2)c(=O)c2cc(F)c(N3CCN(C)CC3)cc21`, the IC50 in the assay on L1210, in the assay with Hep 3B2, with SMMC-7721, with HL-60 and in the assay with CAPAN-1 was 3.6 to 56.8 µM each time.
For `CC1COc2c(N3CCN(C)CC3)c(F)cc3c(=O)c(-c4nc5scc(-c6ccccc6)n5n4)cn1c23` (configuration not stated), the half-inhibitory concentration (IC50) in the assay with L1210, with Hep 3B2, in the assay with SMMC-7721, in the assay on HL-60 and in the assay with CAPAN-1 was 3.6 to 56.8 µM throughout.
For `CCn1cc(-c2nc3scc(-c4ccc(C)cc4)n3n2)c(=O)c2cc(F)c(N3CCN(C)CC3)cc21`, the IC50 in the assay with L1210, in the assay with Hep 3B2, in the assay on SMMC-7721, in the assay with HL-60 and in the assay on CAPAN-1 was 3.6 to 56.8 µM throughout.
As to `Cc1ccc(-c2nnc(CSc3nnc(-c4cn(C5CC5)c5cc(N6CCN(C)CC6)c(F)cc5c4=O)o3)o2)cc1`, the 50% inhibitory concentration (IC50) in the assay with L1210, in the assay on SMMC-7721 and in the assay with HL-60 was 2.4 to 32.4 µM in each case.
In the case of `COc1ccccc1-c1nnc(CSc2nnc(-c3cn4c5c(c(N6CCN(C)CC6)c(F)cc5c3=O)OCC4C)o2)o1` (configuration not stated), the IC50 in the assay with L1210, in the assay with SMMC-7721 and in the assay on HL-60 was 5.7 to 24.7 µM each time.
Turning to `Cc1ccc(-c2nnc(CSc3nnc(-c4cn5c6c(c(N7CCN(C)CC7)c(F)cc6c4=O)OCC5C)o3)o2)cc1` (configuration not stated), the IC50 with L1210, in the assay with SMMC-7721 and with HL-60 was 5.7 to 24.7 µM throughout.
For the compound `CN1CCN(c2cc3c(cc2F)c(=O)c(-c2nc4scc(-c5ccc([N+](=O)[O-])cc5)n4n2)cn3C2CC2)CC1`, the IC50 with Hep 3B2, in the assay with HL-60 and in the assay with CAPAN-1 was 3.6 to 7.6 µM in each case.
For `COc1ccccc1-c1nnc(CSc2nnc(-c3cn(C4CC4)c4cc(N5CCN(C)CC5)c(F)cc4c3=O)o2)o1`, the IC50 in the assay with L1210, in the assay with SMMC-7721 and in the assay with HL-60 was 2.4 to 32.4 µM in each case.
As for `COc1ccc(-c2csc3nc(-c4cn5c6c(c(N7CCN(C)CC7)c(F)cc6c4=O)OCC5C)nn23)cc1` (configuration not stated), the IC50 in the assay on L1210, with Hep 3B2, in the assay on SMMC-7721, in the assay on HL-60 and with CAPAN-1 was 26.7 to 35.7 µM each time.
